Laboratory results published in US10858335B2 (Rigel Pharmaceuticals, Inc., priority 2014, dated 2020).

What follows are molecules tested on GDF8 signaling (p-SMAD-3 (Ser423/425)) (assay: AlphaScreen SureFire SMAD3 (p-Ser423/425) assay, GDF8-stimulated cells (GDF pSMAD)). Conditions: Mus musculus, MPC-11, MPC11; GDF8-stimulated; p-SMAD3 AlphaScreen; read-out: GDF pSMAD (MPC11) (inhibition of GDF8 signaling).
Assay type: cell-based
`Fc1ccc(Cl)cc1-c1ncccc1-c1ccc2nccn2c1` [compound 721, 6-(2-(5-Chloro-2-fluorophenyl)pyridin-3-yl)imidazo[1,2-a]pyridine] gave an IC50 of 440 nM.
For `CN1CCC(NC(=O)c2cnc3ccc(-c4cccnc4-c4cc(Cl)ccc4F)cn23)CC1` [compound 722, 6-(2-(5-Chloro-2-fluorophenyl)pyridin-3-yl)-N-(1-methylpiperidin-4-yl)imidazo[1,2-a]pyridine-3-carboxamide], the IC50 was 63.9 nM.
Molecule `CN1CCC(NC(=O)c2cnc3ccc(-c4cccnc4-c4cc(Cl)c(F)cc4F)cn23)CC1` [compound 723, 6-(2-(5-Chloro-2,4-difluorophenyl)pyridin-3-yl)-N-(1-methylpiperidin-4-yl)imidazo[1,2-a]pyridine-3-carboxamide] has an IC50 of 102 nM.
In the case of `Cc1cccc(-c2ncccc2-c2ccc3ncc(C(=O)NCCCN4CCCC4=O)n3c2)c1` [compound 724, N-(3-(2-Oxopyrrolidin-1-yl)propyl)-6-(2-(m-tolyl)pyridin-3-yl)imidazo[1,2-a]pyridine-3-carboxamide], the IC50 is reported as 537 nM.
Work on `Cc1ccc(F)c(-c2ncccc2-c2ccc3ncc(C(=O)NCCCN4CCCC4=O)n3c2)c1` [compound 725, 6-(2-(2-Fluoro-5-methylphenyl)pyridin-3-yl)-N-(3-(2-oxopyrrolidin-1-yl)propyl)imidazo[1,2-a]pyridine-3-carboxamide] yielded an IC50 of 464 nM.
Work on `O=C(NCCCN1CCCC1=O)c1cnc2ccc(-c3cccnc3-c3cccc(Cl)c3)cn12` [compound 726, 6-(2-(3-Chlorophenyl)pyridin-3-yl)-N-(3-(2-oxopyrrolidin-1-yl)propyl)imidazo[1,2-a]pyridine-3-carboxamide] yielded an IC50 of 565 nM.
Work on `O=C(NCCCN1CCCC1=O)c1cnc2ccc(-c3cccnc3-c3ccc(F)c(Cl)c3)cn12` [compound 727, 6-(2-(3-Chloro-4-fluorophenyl)pyridin-3-yl)-N-(3-(2-oxopyrrolidin-1-yl)propyl)imidazo[1,2-a]pyridine-3-carboxamide] yielded an IC50 of 886 nM.
With `O=C(NCCCN1CCCC1=O)c1cnc2ccc(-c3cccnc3-c3cc(F)c(F)cc3F)cn12` [compound 728, N-(3-(2-Oxopyrrolidin-1-yl)propyl)-6-(2-(2,4,5-Trifluorophenyl)pyridin-3-yl)imidazo[1,2-a]pyridine-3-carboxamide] the IC50 was 5060 nM.
`O=C(NCCCN1CCCC1=O)c1cnc2ccc(-c3cccnc3-c3cc(Cl)ccc3F)cn12` [compound 729, 6-(2-(5-Chloro-2-fluorophenyl)pyridin-3-yl)-N-(3-(2-oxopyrrolidin-1-yl)propyl)imidazo[1,2-a]pyridine-3-carboxamide] was tested, and the IC50 was 286 nM.
Work on `O=C(NCCCN1CCCC1=O)c1cnc2ccc(-c3cccnc3-c3cc(Cl)c(F)cc3F)cn12` [compound 730, 6-(2-(5-Chloro-2,4-difluorophenyl)pyridin-3-yl)-N-(3-(2-oxopyrrolidin-1-yl)propyl)imidazo[1,2-a]pyridine-3-carboxamide] yielded an IC50 of 590 nM.
Work on `Cc1cccc(-c2ncccc2-c2ccn3ncnc3c2)c1` [compound 732, 7-(2-(m-Tolyl)pyridin-3-yl)-[1,2,4]triazolo[1,5-a]pyridine] yielded an IC50 of 258 nM.
In the case of `Fc1ccc(-c2ncccc2-c2ccn3ncnc3c2)cc1Cl` [compound 733, 7-(2-(3-Chloro-4-fluorophenyl)pyridin-3-yl)-[1,2,4]triazolo[1,5-a]pyridine], the IC50 is reported as 1270 nM.
Work on `Clc1cccc(-c2ncccc2-c2ccn3ncnc3c2)c1` [compound 734, 7-(2-(3-Chlorophenyl)pyridin-3-yl)-[1,2,4]triazolo[1,5-a]pyridine] yielded an IC50 of 694 nM.
Molecule `Fc1cc(F)c(-c2ncccc2-c2ccn3ncnc3c2)cc1Cl` [compound 735, 7-(2-(5-Chloro-2,4-difluorophenyl)pyridin-3-yl)-[1,2,4]triazolo[1,5-a]pyridine] has an IC50 of 676 nM.
With `Fc1ccc(Cl)cc1-c1ncccc1-c1ccn2ncnc2c1` [compound 736, 7-(2-(5-Chloro-2-fluorophenyl)pyridin-3-yl)-[1,2,4]triazolo[1,5-a]pyridine] the IC50 was 251 nM.
